Laboratory results published in patent publication US20240217985A1, “CRYSTALLINE FORM OF AN MDM2-p53 INHIBITOR AND PHARMACEUTICAL COMPOSITIONS” (Boehringer Ingelheim International GmbH, priority 2022, published 2024).

Key:
[1] = Lipophilicity at physiological pH; type: physicochemical
[2] = Aqueous solubility and BCS classification; type: physicochemical
[3] = Gravimetric moisture sorption; type: physicochemical; conditions: 0 to 90% relative humidity, 25.0°C
Experimental: The crystalline form of Compound A of the present invention was subjected to a gravimetric moisture sorption experiment using a DVS intrinsic moisture sorption analyzer (Surface Measurement System). The measurement was conducted in relative humidity steps of 10%. The time per step was set to a minimum of 5 minutes and a maximum of 6 hours. If an equilibrium condition with a constant mass of ±0.02% within 10 min was reached before the maximum time, the subsequent step was applied before the maximum time of 6 hours. If no equilibrium was achieved the consecutive humidity step was applied after the maximum time of 6 hours. The temperature was (25.0±0.1° C.)

[4] = Accelerated stress test, stability at 25°C/60% RH (XRPD and HPLC); type: physicochemical; conditions: Example 1 material; for Impurity 1 / Impurity 2 / Impurity 3 / Impurity 4 / Impurity 5 / Total impurities: 25°C/60% RH open storage
Experimental: (§1) Crystalline materials of Compound A of the present invention were exposed to various temperature and humidity stress conditions and investigated by XRPD and HPLC in order to investigate their physical and chemical stability.
The crystalline form of Compound A of the present invention (prepared according to the procedure described in Example 1) was open stored under humidity stress conditions of 25° C. and 60% RH for 6 months.

[5] = Accelerated stress test, stability at 40°C/75% RH (XRPD and HPLC); type: physicochemical; conditions: Example 1 material
Experimental: as §1
The crystalline form of Compound A of the present invention (prepared according to the procedure described in Example 1) was open stored under heat and humidity stress conditions of 40° C. and 75% RH for 6 months.

[6] = tiny-TIM in vitro bioaccessibility under simulated fasted conditions; type: in vitro ADME
Experimental: A tiny-TIM system was used as a model for the simulation of the physiological processes occurring in human stomach and small intestine to study the in vitro bioaccessibility of the crystalline Compound A of the present invention (prepared according to the procedure described in Example 1) under simulated fasted conditions. Thereby, the impact of drug substance particle size distribution (PSD) and amorphous content on bioaccessibility was evaluated by using tablets manufactured from a range of drug substance batches with different amorphous contents and variations in PSD. The investigated drug products also cover extreme conditions such as low amorphous content and coarse PSD as well as high amorphous content and fine PSD.

[7] = Accelerated stress test, stability at 60°C/80% RH (XRPD and HPLC); type: physicochemical; conditions: for Impurity 1 / Impurity 2 / Impurity 3 / Impurity 4 / Impurity 5 / Total impurities: 60°C/80% RH open storage
Experimental: as §1
The crystalline form of Compound A of the present invention (prepared according to the procedure described in Example 1 and 3, respectively) was open stored under heat and humidity stress conditions of 60° C. and 80% RH for 3 days.
For example, the increase in total impurities of crystalline compound A obtained according to the procedure of Example 3 was below 0.5%. Table 9, provides the chemical stability data of the crystalline compound A obtained according to the procedure of Example 1.

[8] = Accelerated stress test, stability at 70°C and 105°C (XRPD and HPLC); type: physicochemical; conditions: for Impurity 1 / Impurity 2 / Impurity 3 / Impurity 4 / Impurity 5 / Total Imp.: closed glass container
Experimental: as §1
The crystalline form of Compound A of the present invention (prepared according to the procedure described in Example 1) was stored in closed glass containers at heat stress condition of 70° C. for 3 weeks. In addition, the crystalline form of Compound A of the present invention (prepared according to the procedures described in Example 1 and 3, respectively) was stored in closed glass containers at heat stress condition of 105° C. for 24 hours.
For example, the increase in total impurities of crystalline compound A obtained according to the procedure of Example 3 was below 0.5%. Table 10, provides the chemical stability data of the crystalline compound A obtained according to the procedure of Example 1.

[9] = open storage 25°C/60% RH, 6 months
[10] = initial, before 40°C/75% RH storage
[11] = open storage 40°C/75% RH, 6 months
[12] = Example 1 material, open storage 60°C/80% RH, 3 days
[13] = Example 3 material, open storage 60°C/80% RH, 3 days
[14] = Example 1 material, 70°C, 3 weeks
[15] = Example 1 material, 105°C, 24 hours
[16] = Example 1 material, 70°C, 1 week
[17] = Example 1 material, 70°C, 2 weeks
[18] = Example 1 material, closed glass containers, 70°C, 3 weeks
[19] = Example 1 material, closed glass containers, 105°C, 24 hours
[20] = Example 3 material, closed glass containers, 105°C, 24 hours

Cc1c(C(=O)O)ccc2c3n(nc12)[C@@H]1[C@H](C3)N(CC2CC2)[C@@]2(C(=O)Nc3cc(Cl)ccc32)[C@H]1c1cccc(Cl)c1F [Compound A, (2′S,3′S,3a′S,10a′S)-6-chloro-3′-(3-chloro-2-fluorophenyl)-1′-(cyclopropylmethyl)-6′-methyl-2-oxo-1,2,3′,3a′,10′,10a′-hexahydro-1′H-spiro[indole-3,2′-pyrrolo[2′,3′:4,5]pyrrolo[1,2-b]indazole]-7′-carboxylic acid]
lipophilicity [1]: lipophilic | aqueous solubility ([2]; across the physiological pH range): low | biopharmaceutical classification system class ([2]; class II = low solubility, high permeability): class II

Cc1c(C(=O)O)ccc2c3n(nc12)[C@@H]1[C@H](C3)N(CC2CC2)[C@@]2(C(=O)Nc3cc(Cl)ccc32)[C@H]1c1cccc(Cl)c1F [crystalline form of Compound A, (2′S,3′S,3a′S,10a′S)-6-chloro-3′-(3-chloro-2-fluorophenyl)-1′-(cyclopropylmethyl)-6′-methyl-2-oxo-1,2,3′,3a′,10′,10a′-hexahydro-1′H-spiro[indole-3,2′-pyrrolo[2′,3′:4,5]pyrrolo[1,2-b]indazole]-7′-carboxylic acid]
water uptake ([3]; material obtained from ACN/H2O (Example 3)): about 3.1 % (w/w) | water uptake ([3]; material obtained from IPA/H2O (Example 1)): about 3.6 % (w/w) | Impurity 1 ([4]; 1 month): 0.07% | Impurity 2 ([4]; 1 month): ≤0.05% | Impurity 3 ([4]; 1 month): 0.06% | Impurity 4 ([4]; 1 month): 0.23% | Impurity 5 ([4]; 1 month): 0.25% | Total impurities ([4]; 1 month): 0.61% | Impurity 1 ([4]; 2 months): 0.07% | Impurity 2 ([4]; 2 months): ≤0.05% | Impurity 3 ([4]; 2 months): 0.06% | Impurity 4 ([4]; 2 months): 0.23% | Impurity 5 ([4]; 2 months): 0.25% | Total impurities ([4]; 2 months): 0.61% | Impurity 1 ([4]; 3 months): 0.07% | Impurity 2 ([4]; 3 months): ≤0.05% | Impurity 3 ([4]; 3 months): ≤0.05% | Impurity 4 ([4]; 3 months): 0.23% | Impurity 5 ([4]; 3 months): 0.25% | Total impurities ([4]; 3 months): 0.60% | Impurity 1 ([4]; 6 months): 0.07% | Impurity 2 ([4]; 6 months): ≤0.05% | Impurity 3 ([4]; 6 months): 0.06% | Impurity 4 ([4]; 6 months): 0.23% | Impurity 5 ([4]; 6 months): 0.27% | Total impurities ([4]; 6 months): 0.63% | Impurity 1 ([4]; Start): 0.08% | Impurity 2 ([4]; Start): 0.06% | Impurity 3 ([4]; Start): ≤0.05% | Impurity 4 ([4]; Start): 0.26% | Impurity 5 ([4]; Start): 0.26% | Total impurities ([4]; Start): 0.66% | stability under stress conditions (summary) ([4]; 25°C/60% relative humidity, 6 months): stable | chemical stability: impurity profile of initial samples vs stressed samples [4, 9]: no significant increase of chemical impurities | physical stability: XRPD of initial sample vs stressed sample [4, 9]: No differences in reflection positions | stability under accelerated stress conditions (summary) ([5]; 40°C/75% relative humidity, 6 months): stable | Impurity A, Initial Peak Area-% [5, 10]: 0.06% | Impurity B, Initial Peak Area-% [5, 10]: 0.06% | Impurity C, Initial Peak Area-% [5, 10]: 0.05% | Impurity D, Initial Peak Area-% [5, 10]: 0.23% | Impurity E, Initial Peak Area-% [5, 10]: 0.31% | Total impurities, Initial Peak Area-% [5, 10]: 0.71% | Impurity A, Peak Area-% at 6 months [5, 11]: Not detected | Impurity B, Peak Area-% at 6 months [5, 11]: 0.06% | Impurity C, Peak Area-% at 6 months [5, 11]: 0.06% | Impurity D, Peak Area-% at 6 months [5, 11]: 0.25% | Impurity E, Peak Area-% at 6 months [5, 11]: 0.33% | Total impurities, Peak Area-% at 6 months [5, 11]: 0.70% | chemical stability: impurity profile of initial sample vs stressed sample [5, 11]: no significant increase of chemical impurities | physical stability: XRPD of initial sample vs stressed sample [5, 11]: No differences in reflection positions | bioaccessibility profile, crystalline form versus amorphous Compound A ([6]; tablets): comparable bioaccessibility profiles | effect of PSD and amorphous content on bioaccessibility and concentration profiles ([6]; tablets from batches of Table 15 (amorphous content 6-75%, D50 3.6-25.0 μm)): did not have a significant effect | Impurity 1 ([7]; Example 1 material, 3 days): 0.07% | Impurity 2 ([7]; Example 1 material, 3 days): ≤0.05% | Impurity 3 ([7]; Example 1 material, 3 days): 0.07% | Impurity 4 ([7]; Example 1 material, 3 days): 0.24% | Impurity 5 ([7]; Example 1 material, 3 days): 0.31% | Total impurities ([7]; Example 1 material, 3 days): 0.69% | Impurity 1 ([7]; Example 1 material, Start): 0.08% | Impurity 2 ([7]; Example 1 material, Start): 0.06% | Impurity 3 ([7]; Example 1 material, Start): ≤0.05% | Impurity 4 ([7]; Example 1 material, Start): 0.26% | Impurity 5 ([7]; Example 1 material, Start): 0.26% | Total impurities ([7]; Example 1 material, Start): 0.66% | stability under stress conditions (summary) ([7]; Example 1 material, 60°C/80% relative humidity, 3 days): stable | chemical stability: impurity profiles of initial samples vs stressed samples [7, 12]: no significant increase of chemical impurities | physical stability: XRPD of initial samples vs stressed samples [7, 12]: No differences in reflection positions | physical and chemical stability under stress conditions (summary) ([7]; Example 3 material, 60°C/80% relative humidity, 3 days): physically and chemically stable | increase in total impurities [7, 13]: below 0.5% | physical stability: XRPD of initial samples vs stressed samples [7, 13]: No differences in reflection positions | physical and chemical stability under temperature stress (summary) [8, 14]: physically and chemically stable | physical and chemical stability under temperature stress (summary) [8, 15]: physically and chemically stable | Impurity 1 [8, 16]: 0.07% | Impurity 2 [8, 16]: ≤0.05% | Impurity 3 [8, 16]: 0.07% | Impurity 4 [8, 16]: 0.24% | Impurity 5 [8, 16]: 0.26% | Total Imp. [8, 16]: 0.64% | Impurity 1 [8, 17]: 0.07% | Impurity 2 [8, 17]: ≤0.05% | Impurity 3 [8, 17]: 0.06% | Impurity 4 [8, 17]: 0.23% | Impurity 5 [8, 17]: 0.25% | Total Imp. [8, 17]: 0.61% | Impurity 1 [8, 14]: 0.07% | Impurity 2 [8, 14]: ≤0.05% | Impurity 3 [8, 14]: 0.07% | Impurity 4 [8, 14]: 0.24% | Impurity 5 [8, 14]: 0.31% | Total Imp. [8, 14]: 0.69% | Impurity 1 [8, 15]: 0.07% | Impurity 2 [8, 15]: ≤0.05% | Impurity 3 [8, 15]: 0.06% | Impurity 4 [8, 15]: 0.23% | Impurity 5 [8, 15]: 0.25% | Total Imp. [8, 15]: 0.61% | Impurity 1 ([8]; Example 1 material, Start): 0.08% | Impurity 2 ([8]; Example 1 material, Start): 0.06% | Impurity 3 ([8]; Example 1 material, Start): ≤0.05% | Impurity 4 ([8]; Example 1 material, Start): 0.26% | Impurity 5 ([8]; Example 1 material, Start): 0.26% | Total Imp. ([8]; Example 1 material, Start): 0.66% | chemical stability: impurity profiles of initial samples vs stressed samples [8, 18]: remained chemically stable | physical stability: XRPD of initial samples vs stressed samples [8, 18]: No differences in reflection positions | chemical stability: impurity profiles of initial samples vs stressed samples [8, 19]: remained chemically stable | physical stability: XRPD of initial samples vs stressed samples [8, 19]: No differences in reflection positions | physical and chemical stability under temperature stress (summary) ([8]; Example 3 material, 105°C, 24 hours): physically and chemically stable | increase in total impurities [8, 20]: below 0.5% | physical stability: XRPD of initial samples vs stressed samples [8, 20]: No differences in reflection positions
